The values that follow come from US11987569B2, “Substituted imidazoquinolines as agonists of TLR7” (BIONTECH SE, priority 2017, dated 2024).

The subject of the first experiment is human PBMCs. As to the kind of experiment: IFN-α induction assay: IFN-α induction by TLR agonists in human PBMCs (Luminex). It is filed as cell-based. The settings on record: 24 h incubation, comparative compounds, Table 2. The protocol:
IFN-α Induction Assay—IFN-α Induction by TLR Agonists in Human PBMCs
Materials and Devices: Bio Plex 200 Luminex device, and BioPlex Manager software; MultiScreen Filter Plates (Millipore, MABVN1250); low binding reaction vials 1.5 ml (Sarstedt, 72.706.600); Activation Buffer: 0.1M Na-dihydrogen phosphate, 0.1M Di-Na hydrogen phosphate pH 6.2; Sulfo-NHS (N-hydroxysulfosuccinimide) solution: 50 mg/ml in water (freshly prepared); EDC solution: 50 mg/ml in water (freshly prepared); Coupling Buffer: PBS; Washing Buffer: PBS+0.05% Tween20; Blocking Buffer: PBS+10 mg/ml BSA+0.05% sodium azide; Assay Buffer: PBS+10 mg/ml BSA;
In each well of a 96-well U-bottom plate 200,000 PBMCs were pre-incubated in medium (RPMI1640−Gibco #61870-044÷10% FBS+1% L-glutamine) for 5 hours at 37° C. and 5% CO2 before the compounds of the present invention or controls were added, respectively. Upon addition of compounds of the present invention or controls, the cells are incubated for another 24 h at 37° C. and 5% Co2.
Luminex assay, Step 1: Coupling of antibody to beads: • transfer a suspension (beads are stored in buffer as provided by manufacturer) of about 5 million MicroPlex Microspheres (=beads) into a low binding reaction vial • centrifuge bead suspension for 1 min at 10,000 g, discard supernatant and resuspend pellet in 160 μl Activation Buffer, repeat once • add 20 μl Sulfo-NHS solution and 20 μl EDC solution, vortex • incubate for 20 min in the absence of light • centrifuge bead suspension for 1 min at 10,000 g, discard supernatant and resuspend pellet in 500 μl Coupling Buffer, repeat once • add capture antibody (CaptureAK eBioscience #BMS160, 5 μg per 1 Mio beads) • incubate 2 h at RT in the absence of light while swaying • centrifuge bead suspension for 1 min at 10,000 g, discard supernatant and resuspend pellet in 500 μl Washing Buffer, repeat once • centrifuge bead suspension for 1 min at 10,000 g, discard supernatant and resuspend pellet in 100 μl Blocking Buffer
Luminex Assay, Step 2: Measurement • add 100 μl Assay Buffer into each filter plate well (seal any unused wells with adhesive tape), then remove buffer • add about 2,000 beads per well per analyte (per analyte, a different bead type with distinct fluorescence color is used), suspended in 50 μL of Assay Buffer • remove buffer and wash twice with 100 μl Washing Buffer per well • per well, add 50 μl sample solution from the (pre-)incubation step (cell supernatant), or Standard (IFN-α standard eBioscience #BMS216MST—concentration gradient, highest standard concentration 2500 pg/ml) or Assay Buffer (as blanks) • shake plate • incubate plate for 2 h at RT in the absence of light, while swaying the plate • wash three times with 100 μl Washing Buffer per well • add 25 μl antibody detection mix (DetectionAK eBioscience #BMS1016BT diluted 1:1000) in Assay Buffer per well, then vortex plate • incubate plate for 1 h at RT in the absence of light, while swaying the plate • wash three times with 100 μl Washing Buffer per well • add 50 μl Streptavidin/PE (diluted 1:200 in Assay Buffer) per well, then vortex plate • incubate plate for 10 min at RT in the absence of light, while swaying the plate • wash three times with 100 μl Washing Buffer per well • add 100 μl Assay Buffer per well, then vortex plate • start Luminex measurement according to manufacturer's instructions, measuring at least 50 beads per well per analyte
The compounds were tested at 8 different concentrations (1 μM, 0.3 μM, 0.1 μM, 0.03 μM, 0.01 μM 0.003 μM, 0.001 μM, 0.0003 μM) using a half-logarithmic dilution. The release of Interferon-alpha (IFN-α) presents a bell-shaped distribution within the dilution window. The minimum effective concentration (MEC) is the lowest concentration required to induce the desired IFN-α release. It represents the outset of the bell-shaped distribution and is given in nM. […]
On to `CCNCc1nc2c(N)nc3ccccc3c2n1CCCCN(C(C)=O)C1CCS(=O)(=O)C1` (stereo not drawn) [10′, reference compound], for which the “Minimum effective concentration IFN-α release” value is “inactive”.

Consider `CCNCc1nc2c(N)nc3ccccc3c2n1CCCCN(C(=O)OC)C1CCS(=O)(=O)C1` (stereo not drawn) [11′, reference compound], for which the “Minimum effective concentration IFN-α release” value is “inactive”.

The same experiment, now with this note: PBMC, 24 h incubation, comparative compounds, Table 2, read-out: Minimum effective concentration IFN-α release.
Consider `COCCc1nc2c(N)nc3ccccc3c2n1CCCCN(C(C)=O)C1CCS(=O)(=O)C1` (stereo not drawn) [13′, reference compound], for which the minimal effective concentration was 0.03 µM.

As for `COCCc1nc2c(N)nc3ccccc3c2n1CCCCN(C(N)=O)C1CCS(=O)(=O)C1` (stereo not drawn) [15′, reference compound], the minimal effective concentration came out at 0.1 µM.

Take `CCc1nc2c(N)nc3ccccc3c2n1CCCCN(C(N)=O)C1CCS(=O)(=O)C1` (stereo not drawn) [9′, reference compound]: the minimal effective concentration was 0.3 µM.

`CCNCc1nc2c(N)nc3ccccc3c2n1CCCCN(C(N)=O)C1CCS(=O)(=O)C1` (stereo not drawn) [12′, reference compound]: the minimal effective concentration is 10 µM.

As to `CCc1nc2c(N)nc3ccccc3c2n1CCCCN(C(=O)OC)C1CCS(=O)(=O)C1` (stereo not drawn) [8′, reference compound], the minimal effective concentration was found to be 0.1 µM.

For `CCc1nc2c(N)nc3ccccc3c2n1CCCCN(C(C)=O)C1CCS(=O)(=O)C1` (stereo not drawn) [7′, N-[4-(4-amino-2-ethyl-1H-imidazo[4,5-c]quinolin-1-yl)butyl]-N-(1,1-dioxidotetrahydro-3-thienyl)acetamide, reference compound], the minimal effective concentration stood at 0.3 µM.

For `COCCc1nc2c(N)nc3ccccc3c2n1CCCCN(C(=O)OC)C1CCS(=O)(=O)C1` (stereo not drawn) [14′, reference compound], the minimal effective concentration was found to be 0.01 µM.

Staying with this experiment, now noted: PBMC, 24 h incubation, lowest concentration inducing the desired IFN-α release, Table 1, read-out: Minimum effective concentration IFN-α release.
For `CCc1nc2c(N)nc3ccccc3c2n1CCCCN(C(=O)OC)C1CS(=O)(=O)C1` [Example 8, Methyl (4-(4-amino-2-ethyl-1H-imidazo[4,5-c]quinolin-1-yl)butyl)(1,1-dioxidothietan-3-yl)carbamate], the minimal effective concentration came out at 0.03 µM.

Turning to `CCc1nc2c(N)nc3ccccc3c2n1CCCCN(C(N)=O)C1CS(=O)(=O)C1` [Example 9, 1-(4-(4-Amino-2-ethyl-1H-imidazo[4,5-c]quinolin-1-yl)butyl)-1-(1,1-dioxidothietan-3-yl)urea], the minimal effective concentration was 0.1 µM.

With `CCNCc1nc2c(N)nc3ccccc3c2n1CCCCN(C(=O)OC)C1CS(=O)(=O)C1` [Example 11, Methyl (4-(4-amino-2-((ethylamino)methyl)-1H-imidazo[4,5-c]quinolin-1-yl)butyl)(1,1-dioxidothietan-3-yl)carbamate], the minimal effective concentration worked out at 0.1 µM.

For the compound `CCNCc1nc2c(N)nc3ccccc3c2n1CCCCN(C(N)=O)C1CS(=O)(=O)C1` [Example 12, 1-(4-(4-Amino-2-((ethylamino)methyl)-1H-imidazo[4,5-c]quinolin-1-yl)butyl)-1-(1,1-dioxidothietan-3-yl)urea], the minimal effective concentration worked out at 3 µM.

Take `COCCc1nc2c(N)nc3ccccc3c2n1CCCCN(C(=O)OC)C1CS(=O)(=O)C1` [Example 14, Methyl (4-(4-amino-2-(2-methoxyethyl)-1H-imidazo[4,5-c]quinolin-1-yl)butyl)(1,1-dioxidothietan-3-yl)carbamate]: the minimal effective concentration was found to be 0.001 µM.

In the case of `CCNCc1nc2c(N)nc3ccccc3c2n1CCCCN(C(C)=O)C1CS(=O)(=O)C1` [Example 10, N-(4-(4-Amino-2-((ethylamino)methyl)-1H-imidazo[4,5-c]quinolin-1-yl)butyl)-N-(1,1-dioxidothietan-3-yl)acetamide], the minimal effective concentration came out at 1 µM.

Regarding `COCCc1nc2c(N)nc3ccccc3c2n1CCCCN(C(N)=O)C1CS(=O)(=O)C1` [Example 15, 1-(4-(4-Amino-2-(2-methoxyethyl)-1H-imidazo[4,5-c]quinolin-1-yl)butyl)-1-(1,1-dioxidothietan-3-yl)urea], the minimal effective concentration amounted to 0.02 µM.

As to `COCCc1nc2c(N)nc3ccccc3c2n1CCCCN(C(C)=O)C1CS(=O)(=O)C1` [Example 13, N-(4-(4-Amino-2-(2-methoxyethyl)-1H-imidazo[4,5-c]quinolin-1-yl)butyl)-N-(1,1-dioxidothietan-3-yl)acetamide], the minimal effective concentration came out at 0.01 µM.

Consider `CCc1nc2c(N)nc3ccccc3c2n1CCCCN(C(C)=O)C1CS(=O)(=O)C1` [Example 7, N-(4-(4-Amino-2-ethyl-1H-imidazo[4,5-c]quinolin-1-yl)butyl)-N-(1,1-dioxidothietan-3-yl)acetamide], for which the minimal effective concentration is 0.1 µM.

For a further experiment, the system named is IFN-α secretion. As to the kind of experiment: In vivo profiling: plasma IFN-α after single intravenous infusion in cynomolgus monkeys (ELISA). The settings on record: cynomolgus monkey, single dose 0.3 mg/kg (smallest dose tested), 30 min i.v. infusion. As for the experimental part: In the following studies, a compound according to the invention was examined in an in vivo cynomolgus monkey model. It is evaluated whether and at which applied dose the compounds cause secretion of IFN-α.
In particular, a defined single dose of test compound was applied intravenously to cynomolgus monkeys by a thirty minute infusion. At several time points after initiation of the intravenous compound application, blood samples (0.5 mL for approximately 0.25 mL plasma) were collected from the vena cephalica antebrachii or vena saphena into K3EDTA tubes from the animals. Blood samples were stored on crushed ice prior to centrifugation. Plasma was obtained by centrifugation at 4° C. and approximately 1800 g for 10 minutes and was aliquoted into labeled micro tubes and stored frozen at −70° C. or below. Plasma samples were thawed, diluted and used for determination of IFN-α levels using an IFN-α Elisa Kit (e.g. VeriKine™ Cynomolgus/Rhesus IFN-α ELISA Kit) according to the manufacturer's instructions.
As to `CCc1nc2c(N)nc3ccccc3c2n1CCCCN(C(C)=O)C1CS(=O)(=O)C1` [Example 7, N-(4-(4-Amino-2-ethyl-1H-imidazo[4,5-c]quinolin-1-yl)butyl)-N-(1,1-dioxidothietan-3-yl)acetamide], the “peak plasma IFN-α concentration” value is reported as “about 5000 pg/ml”.

Staying with this experiment, now noted: cynomolgus monkey, single dose 10 mg/kg, 30 min i.v. infusion.
As to `CCc1nc2c(N)nc3ccccc3c2n1CCCCN(C(C)=O)C1CS(=O)(=O)C1` [Example 7, N-(4-(4-Amino-2-ethyl-1H-imidazo[4,5-c]quinolin-1-yl)butyl)-N-(1,1-dioxidothietan-3-yl)acetamide], the “peak plasma IFN-α concentration” value was “about 30,000 pg/ml”.

The subject of the next experiment is superficial basal cell carcinomas.
Experiment: not given
The settings on record: marketed as 5% cream (Aldara); cited from earlier work.
Consider `CC(C)Cn1cnc2c(N)nc3ccccc3c21` [Imiquimod, imiquimod], for which the “5-year clearance of superficial basal cell carcinomas” value is reported as “approx. 80%”.
